Measured values taken from patent US11178823B2, “Systems and methods for using light energy to facilitate penetration of substances in plants” (priority 2014, dated 2021).

What was measured:
[1] = Uptake and phloem movement of fluorescent test substances applied onto lased citrus leaves (fluorescent microscopy); type: in vivo
Source text: To illustrate the effectiveness of the methods disclosed herein, a test substance was used to show the enhanced penetration through foliar application. Among test substances, phloem mobile compounds NBDG, a fluorescent analog of glucose (a natural sugar found in plants), and carboxyfluorescin-SE (a membrane permeable substance only fluorescent in live cells) were used in an experiment. Both substances were manually applied onto lased leaves (using a 13×39 dot indentation pattern 801) at a concentration of 5 mg/mL.
FIGS. 8A-8B were observed under fluorescent microscopy and FIG. 8B was taken 10 minutes after the application of 5 μL of NBDG.
Within 2 h, fluorescent NBDG was observed within the lateral veins of the lased leaves (shown in FIGS. 9A-9B) emerging from the application area. FIGS. 9A-9B are fluorescent micrographs of a portion of a lased citrus leaf. […] FIG. 9B is another image showing the NBDG in a minor veins 903 and main vein 905.
It should be appreciated that movement of the foliarly applied NBDG continued down the stem and towards the roots. […] FIGS. 11A-11B show bark sections of young trees. […] The distance between the lased leaves and bark segment 1103 was approximately 20 cm.

HLB bacteria = test: PCR analysis for presence of HLB in leaves of lased and antimicrobial-treated citrus trees; type: in vivo; details: 2 fluid ounces per tree, 0-29 = HLB detected, 30 and above = no HLB detected; for Presence of HLB using PCR analysis, Sample A: lased and treated leaves; for Presence of HLB using PCR analysis, Sample B: leaves at furthest point from lased leaves, not lased or treated
Experimental: The following experimental data is provided to exemplarily illustrate various aspects of the inventive subject matter presented herein. More specifically, the data illustrates the surprising uptake of antimicrobials to effectively treat a plant. Citrus trees were tested in three groups consisting of a control group (trees 1-6), an antimicrobial plus surfactant group (trees 7-12), and an antimicrobial only group (trees 13-18). The trees in each group were lased and, in some instances, treated with an antimicrobial, and analyzed two weeks later to determine the amount of HLB present in the tree using Polymerase Chain Reaction (“PCR”) analysis. It should be noted that all the trees in this experiment had HLB at the beginning of the experiment. The antimicrobial used was oxytetracycline (FireLine™) that includes a surfactant (Tactit) for the antimicrobial plus surfactant group, and oxytetracycline without a surfactant for the antimicrobial only group. The laser parameters included a jump speed of 2000 mm/s, marking speed 850 mm/s, and marking intensity: 70%, and a pulse frequency of 15000 Hz.
The control group (trees 1-6) was lased, but not treated with any antimicrobials and/or surfactants. With the exception of one tree (tree 7) that was only lased, the antimicrobial plus surfactant group was lased and treated with an antimicrobial that comprised a surfactant. With the exception of one tree (tree 13) that was only lased, the antimicrobial only group was lased and treated with only an antimicrobial (with no surfactant). The trees in each group were lased on only one side of the tree (the side comprising the “A” samples). If an antimicrobial (with or without surfactant) was applied, such antimicrobial was applied to the side of the tree that was lased. The antimicrobials were prepared at 200 ppm, 500 ppm, 1000 ppm, 1500 ppm, and 2000 ppm in a 1 gallon volume. Only 2 fluid ounces per tree (10 fluid ounces per group of trees) was used of each concentration for this experiment.
After two weeks, leaves that were lased and, in some instances, treated with an antimicrobial were sampled and analyzed. Additionally, leaves located at the furthest point from the lased leaves (the side comprising the “B” samples), which were not directly lased and/or treated, were sampled and analyzed. Leaves were grinded and prepared for PCR analysis for detecting the presence of HLB. PCR determines if there is live HLB DNA. PCR analysis amplifies and copies small segments of DNA. It then yields enough sample DNA to run the analysis. With this experiment there are six trees per treatment group (control group, antimicrobial plus surfactant group, and antimicrobial only group). Each tree falls under two ranges for determining HLB content, values 29 and lower are considered HLB positive (greening) and values 30 and over are trees considered HLB negative (non-greening). If the analysis takes over 30 PCR cycles then it cannot find any target HLB DNA. If the analysis runs against the maximum of 40 PCR cycles then it becomes indeterminate and it could not find one copy of HLB. It should be noted that there could be numbers over “30” but still be no presence of HLB because there are only artifacts of dead HLB bacteria DNA in numbers over “30”.

[2] = 200 ppm, without surfactant, tree 14, two weeks
[3] = 500 ppm, without surfactant, tree 15, two weeks
[4] = 1000 ppm, without surfactant, tree 16, two weeks
[5] = 2000 ppm, with surfactant (Tactit), tree 12, two weeks

SMILES	Uptake into un-lased control leaf (fluorescence) ([1]; applied to the surface of un-lased leaves)	Time until fluorescence observed in the phloem of bark tissue ([1]; bark approximately 20 cm from the treated lased leaf, young trees) [h]	Time until fluorescence observed within the lateral veins of the lased leaves ([1]; lased citrus leaf, 5 mg/mL, emerging from the application area) [h]	Movement in the leaf four hours after application ([1]; lased citrus leaf, 5 mg/mL, four hours after application)	Uptake into lased leaf (fluorescence) ([1]; lased citrus leaf, 13×39 dot indentation pattern, 5 mg/mL, 5 μL, 10 minutes after application)	Presence of HLB using PCR analysis, Sample A (HLB bacteria; 200 ppm, with surfactant (Tactit), tree 8, two weeks after treatment)	Presence of HLB using PCR analysis, Sample B (HLB bacteria; 200 ppm, with surfactant (Tactit), tree 8, two weeks)	Presence of HLB using PCR analysis, Sample A (HLB bacteria; [2])	Presence of HLB using PCR analysis, Sample B (HLB bacteria; [2])	Presence of HLB using PCR analysis, Sample A (HLB bacteria; 500 ppm, with surfactant (Tactit), tree 9, two weeks)	Presence of HLB using PCR analysis, Sample A (HLB bacteria; [3])	Presence of HLB using PCR analysis, Sample B (HLB bacteria; [3])	Presence of HLB using PCR analysis, Sample A (HLB bacteria; [4])	Presence of HLB using PCR analysis, Sample B (HLB bacteria; [4])	Presence of HLB using PCR analysis, Sample B (HLB bacteria; 1500 ppm, with surfactant (Tactit), tree 11, two weeks)	Presence of HLB using PCR analysis, Sample B (HLB bacteria; 1500 ppm, without surfactant, tree 17, two weeks)	Presence of HLB using PCR analysis, Sample A (HLB bacteria; [5])	Presence of HLB using PCR analysis, Sample B (HLB bacteria; [5])	Presence of HLB using PCR analysis, Sample B (HLB bacteria; 2000 ppm, without surfactant, tree 18, two weeks)
O=[N+]([O-])c1ccc(N[C@H]2C(O)O[C@H](CO)[C@@H](O)[C@@H]2O)c2nonc12 (stereo partly shown) [NBDG]	no fluorescence	≤ 8	≤ 2	reached and passed the base of the petiole	spread of fluorescence within the lased area														
CN(C)[C@@H]1C(O)=C(C(N)=O)C(=O)[C@@]2(O)C(O)=C3C(=O)c4c(O)cccc4[C@@](C)(O)[C@H]3[C@H](O)[C@@H]12 [oxytetracycline]						30.6	33.5	27.0	26.1	35.4	34.7	26.6	37.8	28.7	36.8	26.2	37.6	36.1	27.6
